Data taken from ChEMBL document CHEMBL4823263, “Discovery of 2-(3-(3-Carbamoylpiperidin-1-yl)phenoxy)acetic Acid Derivatives as Novel Small-Molecule Inhibitors of the β-Catenin/B-Cell Lymphoma 9 Protein-Protein Interaction” (J Med Chem, 2021).

How the values were obtained:
MDA-MB-231 = assay: Antiproliferative activity against human MDA-MB-231 cells incubated for 72 hrs by MTS assay; assay type: functional, cell-based; conditions: MDA-MB-231, 72 h
MDA-MB-468 = assay: Antiproliferative activity against human MDA-MB-468 cells incubated for 72 hrs by MTS assay; assay type: functional, cell-based; conditions: MDA-MB-468, 72 h
[1] = target: Protein Wnt-3a (Mus musculus) (UniProt P27467); assay: Inhibition of mouse wnt3a expressed in human MDA-MB-231 cells assessed as cyclin D1 level at 10 uM incubated for […] by quantitative real-time PCR analysis relative to control; assay type: cell-based; design: scale not given: the % may be the effect or the level left
Sequence of Protein Wnt-3a (Mus musculus) (P27467 whole entry): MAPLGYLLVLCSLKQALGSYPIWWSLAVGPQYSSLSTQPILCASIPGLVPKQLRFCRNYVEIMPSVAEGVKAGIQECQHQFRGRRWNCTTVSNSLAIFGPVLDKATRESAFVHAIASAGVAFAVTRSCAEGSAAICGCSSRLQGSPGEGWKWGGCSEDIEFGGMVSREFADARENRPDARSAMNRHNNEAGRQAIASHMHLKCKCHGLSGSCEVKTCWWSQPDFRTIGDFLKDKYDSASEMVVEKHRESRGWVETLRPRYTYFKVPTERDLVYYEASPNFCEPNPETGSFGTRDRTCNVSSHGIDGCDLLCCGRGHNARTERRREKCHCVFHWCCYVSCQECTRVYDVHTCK

[2] = target: Protein Wnt-3a (Mus musculus) (UniProt P27467); assay: Inhibition of mouse wnt3a expressed in human MDA-MB-231 cells assessed as LEF1 level at 10 uM incubated for […] by quantitative real-time PCR analysis relative to control; assay type: cell-based; design: scale not given: the % may be the effect or the level left
[3] = Downregulation of HPRT in human MDA-MB-231 cells assessed as HPRT level at 30 uM incubated for […] by quantitative real-time PCR analysis relative to control; assay type: ADME, cell-based; conditions: mda-mb-231, 30 µM
[4] = target: Protein Wnt-3a (Homo sapiens) (UniProt P56704); assay: Inhibition of Wnt3a in human SW480 cells assessed as Axin2 level at 3.3 uM incubated for […] by quantitative real-time PCR analysis relative to control; assay type: cell-based; design: scale not given: the % may be the effect or the level left
Sequence of Protein Wnt-3a (Homo sapiens) (P56704 whole entry): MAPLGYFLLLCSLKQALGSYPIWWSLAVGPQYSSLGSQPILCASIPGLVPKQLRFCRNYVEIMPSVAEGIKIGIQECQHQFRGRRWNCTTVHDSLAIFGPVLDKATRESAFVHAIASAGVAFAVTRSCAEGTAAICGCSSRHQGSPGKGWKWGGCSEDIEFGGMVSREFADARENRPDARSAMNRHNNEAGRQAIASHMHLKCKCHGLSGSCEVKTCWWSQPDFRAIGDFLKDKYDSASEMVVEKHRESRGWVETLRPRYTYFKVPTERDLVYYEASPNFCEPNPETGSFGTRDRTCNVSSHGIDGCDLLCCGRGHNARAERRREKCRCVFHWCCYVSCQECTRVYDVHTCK

[5] = target: Protein Wnt-3a (Homo sapiens) (UniProt P56704); assay: Inhibition of Wnt3a in human SW480 cells assessed as Axin2 level at 30 uM incubated for […] by quantitative real-time PCR analysis relative to control; assay type: cell-based; design: scale not given: the % may be the effect or the level left
[6] = target: Protein Wnt-3a (Homo sapiens) (UniProt P56704); assay: Inhibition of Wnt3a in human SW480 cells assessed as cyclin D1 level at 3.3 uM incubated for […] by quantitative real-time PCR analysis relative to control; assay type: cell-based; design: scale not given: the % may be the effect or the level left
[7] = target: Protein Wnt-3a (Homo sapiens) (UniProt P56704); assay: Inhibition of Wnt3a in human SW480 cells assessed as cyclin D1 level at 10 uM incubated for […] by quantitative real-time PCR analysis relative to control; assay type: cell-based; design: scale not given: the % may be the effect or the level left
[8] = target: Protein Wnt-3a (Homo sapiens) (UniProt P56704); assay: Inhibition of Wnt3a in human SW480 cells assessed as LEF1 level at 10 uM incubated for […] by quantitative real-time PCR analysis relative to control; assay type: cell-based; design: scale not given: the % may be the effect or the level left
[9] = target: Protein Wnt-3a (Homo sapiens) (UniProt P56704); assay: Inhibition of Wnt3a in human SW480 cells assessed as LEF1 level at 30 uM incubated for […] by quantitative real-time PCR analysis relative to control; assay type: cell-based; design: scale not given: the % may be the effect or the level left
[10] = Downregulation of HPRT level in human SW480 cells at 3.3 uM incubated for […] by quantitative real-time PCR analysis relative to control; assay type: ADME, cell-based; conditions: sw480, 3.3 µM

Molecule `CC(C)(Oc1cccc(N2CCC[C@H](C(=O)N(Cc3ccc(-c4cccs4)cc3)C3CC3)C2)c1)C(=O)NS(=O)(=O)c1ccc(C#N)cc1` has an IC50 (MDA-MB-231) of 14.3 µM, an IC50 (MDA-MB-468) of 17.8 µM and an Activity [1] of 77%. The Activity [2] was 81%, the Activity [3] was 99% and the Activity [4] was 99%. It also gave an Activity [5] of 42%, an Activity [6] of 53% and an Activity [7] of 40%. It also gave an Activity [8] of 77%, an Activity [9] of 76% and an Activity [10] of 98%.
